We go through one molecule from patent US11759480B2, “Compositions and methods for CAR T cell therapy” (ENDOCYTE, INC., priority 2017, dated 2023).

Molecules are shown by their SMILES. Where two headings read alike, the source gives them in different places.

For one data set, the system named is MDA-MB-231. The data set is described as follows: FITC-Folate dose escalation study in vivo (Example 20). As to the method:
To test whether gradual escalation of FITC-Folate dose can minimize CART cell mediated toxicity without compromising anti-tumor efficacy of CAR T cells, an experiment was designed. A dose of FITC-Folate (0.05 nmole/kg) was introduced first into NSG mice bearing MDA-MB-231 (tumor volume about 50-100 mm^3) along with anti-FITC CAR T cell injections (using about 15×10^6 cells). An additional two doses of about 0.05 nmole/kg FITC-Folate was administered to the mice. […] After a gradual increase of FITC-Folate dose, mice were treated with a 500 nmole/kg dose of FITC-Folate. […] General toxicity of each treatment group was monitored by measuring body weight loss. Tumor volume was measured to monitor anti-FITC CAR T cells' anti-tumor efficacy.

Data set [1] has as its system MDA-MB-231 solid tumor xenografts. The data set is classed as in vivo. The procedure:
MDA-MB-231 cells were subcutaneously injected into the shoulders of NSG mice (Jackson Laboratory) to establish solid tumor xenografts. When tumor volume reached around 50-100 mm^3, anti-FITC CAR T cells (15×10^6 cells) were intravenously introduced into tumor-bearing mice. Twenty NSG mice were divided into four study groups (5 animals in each group). The first group was treated with anti-FITC CAR T cells with phosphate-buffered saline (PBS) as a negative control. The second, third, and fourth groups were treated with anti-FITC CAR T cells with FITC-Folate (500 nmole/kg) every other day. Once a significant toxicity (e.g. serious loss of body weight) was detected, these groups were treated with either: continued FITC-Folate administration (second group); discontinuation of FITC-Folate administration until the mice recovered (third group); or a mixture of 100-fold excess of EC0923 (i.e. free folate) and FITC-Folate until the mice recovered (fourth group). The body weight was measured regularly to monitor toxicity. In addition, the blood concentration of interferon (IFN)-gamma for each treatment group was measured to monitor the degree of anti-FITC CAR T activation. Finally, tumor volume was measured to identify anti-tumor efficacy in each treatment group.

The subject of data set [2] is naïve mice without tumors. The data set is described as follows: FITC-CAR-T proliferation, toxicity and cytokines in naïve mice (Example 37). The data set is classed as in vivo. As to the method:
The evaluation of FITC-CAR-T proliferation and related toxicity in both naïve mice and mice bearing FR+ tumor xenografts was tested. To evaluate whether FITC-CAR-T proliferation in vivo is dependent on the co-existence of the bridge (e.g. EC17) and the tumor antigen (e.g. folate receptor), FITC-CAR-T proliferation in vivo was compared in naïve mice and mice bearing FR+ tumor xenografts, either with or without EC17. 5-8 million CAR-T cells (as indicated in FIGS. 42 and 43) were administered (i.v.) into naïve mice without tumors and mice bearing FR+ tumor xenografts (80-200 mm3). 500 nmol/kg EC17 was dosed 4 hours before and three times per week post CAR-T administration, if desired. Mice were monitored for body weight changes and CAR-T cell count in blood circulation; some mice were also euthanized weekly to evaluate organs. […] CAR-T cell count in blood samples was also compared to evaluate CAR-T proliferation. […] Since the enlargement of spleen size is another indicator for CAR-T proliferation in vivo, spleen size was also measured as shown in FIG. 43B. […]
Cytokine levels including IFN were measured using LEGENDplex human cytokine panel kits (BioLegend, San Diego, Calif.) according to the manufacturer's instructions. Plasma samples were diluted with Assay Buffer, and then mixed with Capture beads immobilized with the antibody directed to the analyzed cytokine. After 2 hours incubation at room temperature with shaking, biotinylated Detection antibody to the analyzed cytokine was added and incubated for one more hour at room temperature with shaking. Phycoerythrin (PE) labeled streptavidin was then added to bind with biotin on the Detection antibody, and FACS was used to read the signal of PE on the binding complex (capture antibody-cytokine-detection antibody). The intensity of PE is proportional to the level of analyzed cytokine. A series of cytokine solutions with known concentrations were measured at the same time and used as standards to quantitate the cytokine levels in the analyzed samples.

The next data set has as its system HEK293-FRa. Kind of data set: FITC-CAR-T/EC17 therapy, HEK293-FRa model (Example 28). The data set is classed as in vivo, NSG mice. As to conditions: 500 nmol/kg weekly, 5 million FITC-CAR-T. The procedure: To test whether FITC-CAR-T/EC17 therapy has anti-tumor activity in various FR+ tumor models, NSG mice were subcutaneously implanted with MDA-MB-231 (triple negative breast cancer cell line), OV90 (human ovarian cancer cell line), KB (human cervical adenocarcinoma cell line), SKOV-3 (human ovarian carcinoma cell line), or HEK293-FRa (HEK293 stably-transfected with human FRa). When tumor size reached […], one dose of EC17 at 500 nmol/kg of body weight was injected by tail vein followed with administering of 5 million FITC-CAR-T cells 4 hours later. 500 nmol/kg EC17 was dosed once every week after the initial EC17/CAR-T administration (about day 7), tumor size and body weights of mice were monitored three times per week. The EC17 dosing days were labeled as green dashed vertical lines in the graph. […] EC17 dose-dependent temporary body weight loss was also observed in all tumor bearing mice, indicating the activation of CAR-Ts is EC17-dependent in these mice.

Data set [3] has as its system naïve mice without tumors. Kind of data set: CAR-T cells with EC17 in naïve mice without tumors (Example 25). The data set is classed as in vivo. As to conditions: 500 nmoles/kg three times per week. As to the method: Five million CAR-T cells were injected (i.v.) into naïve mice without tumors. 500 nmoles/kg EC17 was administrated three times per week. Mice were monitored for 5 weeks, and some were euthanized every week to evaluate organs.

Turning to `Nc1nc2ncc(CNc3ccc(C(=O)NC(CCC(=O)NCCNC(=S)Nc4ccc(-c5c6ccc(=O)cc-6oc6cc(O)ccc56)c(C(=O)O)c4)C(=O)O)cc3)nc2c(=O)[nH]1` (stereo not shown) [EC17, FITC-Folate], the “effect on CAR T cells' anti-tumor efficacy” value in the data set with MDA-MB-231 (gradual escalation) is recorded as “did not negatively affect”. The toxicity result in the data set with MDA-MB-231 (gradual escalation 0.05 to 500 nmole/kg, 15×10^6 CAR T cells) was “no serious toxicity”. Also, in data set [1] (break group), the IFN-gamma blood concentration result is “decreased” and the complete response is reported as 100%. In data set [1] (continued dose group), the IFN-gamma blood concentration result is “a significant amount IFN-gamma was detected”, the “survival of mice at the first week of treatment” value is given as 40% and the tumor response result is “delay of tumor growth”. Besides, in data set [2] (500 nmol/kg three times per week), the “cytokine production (CAR-T activity)” value is reported as “not active in naïve mice”. The body weight result in data set [2] (500 nmol/kg three times per week or no EC17) was “did not show any apparent body weight loss”. In data set [2] (5 or 8 million FITC-CAR-T cells), the FITC-CAR-T proliferation entry was “did not proliferate in naïve mice”. Besides, the tumor response result in the data set with HEK293-FRa is given as “progressive disease”. For the same molecule, the “CAR-T cell proliferation (blood count, spleen size)” value in data set [3] is “did not proliferate”. For the same molecule, the body weight entry in data set [3] (5 million CAR-T, 5 weeks) is “No apparent body weight loss”.
